We go through 2 molecules from patent US10821079B2, “PKC activators and combinations thereof” (Cognitive Research Enterprises, Inc., priority 2011, dated 2020).

Series [1] can be described thus: Water maze spatial learning and memory task, visible platform test. The class given is in vivo, Wistar rats. The protocol:
Water maze spatial learning and memory task (2 training trials/day for 4 days) was used to evaluate effects of oral DCPLA-ME on learning and memory in rats. A visible platform test was conducted after the end of the experiments to evaluate whether the treatment might result in an altered sensorimotor activity and escape motivation.
Male adult Wistar rats (200-250 g) were housed in a temperature-controlled (20-24° C.) room for a week, allowed free access to food and water, and kept on a 12-h light/dark cycle. Rats were anesthetized with sodium pentobarbital (60 mg/kg i.p) and placed in a stereotactic apparatus (Kopf Instruments, Tujunga, Calif.). The core temperature of rats was monitored and kept constant (38.0±0.5° C.) with warming light and pad. Two stainless steel guide cannulas were placed with the tips positioned at the coordinates (anterior-posterior, 0.5 mm; lateral, 1.5 mm; horizontal, 3.2 mm), under aseptic conditions. At the end of surgery and under appropriate anesthesia, rats received (s.c.) banamine (1 mg/kg) and ketoprofen (5 mg/kg) in lactate/Ringer's solution. A 7-day recovery period was allowed before any further experimentation.
On the first day of experiments, all rats were randomly assigned to different groups and swam for 2 min in a 1.5-(diameter)×0.6-m (depth) pool (22±1° C.). On the following day, rats were trained in a two-trial per day task for four consecutive days. Each training trial lasted for up to 2 min, during which rats learned to escape from water by finding a hidden platform that was placed at a fixed location and submerged 1 cm below the water surface. The navigation of the rats was tracked by a video camera. The escape latency and the route of rats' swimming across the pool to the platform were recorded. The quadrant test (1 min) was performed after removing the platform, 24 hr after the last training trial.
DCPLA-ME was administered at either 5.3 or 16.0 mg/kg (intragastric, 8 doses total of 2/week with the first 6 doses before the water maze task and the seventh and eighth doses 0.5 hr after the second trial of the first and third training day).

Series [2] has as its system PKC-ε. Kind of series: PKC-ε level in primary neurons (immunofluorescence, Western Blot). It counts as cell-based, rat. The note with it: ASPD-treated primary neurons, 100 nM DCPLA-ME. On the procedure: Cells were harvested in homogenizing buffer containing 10 mM Tris-Cl (pH 7.4), 1 mM PMSF (phenylmethylsulfonyl fluoride), 1 mM EGTA, 1 mM EDTA, 50 mM NaF, and 20 μM leupeptin and were lysed by sonication. The homogenate was centrifuged at 100,000×g for 15 min at 4° C. to obtain the cytosolic fraction (supernatant) and membrane (pellet). The pellet was resuspended in the homogenizing buffer by sonication. Protein concentration was measured using the Coomassie Plus (Bradford) Protein Assay kit (Pierce, USA). Following quantification, 20 μg of protein from each sample was subjected to SDS-PAGE analysis in 4-20% gradient Tris-Glycine gel (Invitrogen, USA). The separated protein was then transferred to nitrocellulose membrane. The membrane was blocked with BSA at room temperature for 15 min and was incubated with primary antibody over night at 4° C. After the incubation, it was washed three times with TBS-T (Tris Buffered saline-Tween 20) and further incubated with alkaline phosphatase conjugated secondary antibody (Jackson Immunoresearch Laboratories, USA) at 1:10,000 dilution for 45 min. The membrane was finally washed three times with TBS-T and developed using the 1-step NBT-BCIP substrate (Pierce, USA). Western Blot was imaged in the ImageQuant RT-ECL (GE Life Sciences, Piscataway, N.J.) and densitometric quantification was performed using the IMAL software (Blanchette Rockefeller Neurosciences Institute, Morgantown, W. Va.). For translocation assays, PKC activation was represented as the percentage of total protein in the membrane (membrane/cytosol+membrane).
Cells were grown in two chambered slides (Nunc, USA) at low density. For immunofluorescence staining, the cells were washed with PBS (pH 7.4) and fixed with 4% paraformaldehyde for 4 min. Following fixation, the cells were blocked and permeabilized with 5% serum and 0.3% Triton X 100 in 1×PBS for 30 min. […] Six individual fields at 63× oil lens magnification were analyzed for the mean fluorescence intensity (MFI) in each channel. […]

Series [3] concerns synaptosomes. Kind of series: Western blot of synaptosomes from treated cells. The class given is cell-based, human. The note with it: RA 10 μM, Bryostatin-1 0.27 nM, 72 hr. The protocol:
Synaptosomes from undifferentiated and differentiated cells were prepared following the method described earlier (29). See Nagy et al. (1984) J Neurochem 43, 1114-1123. Briefly, the cells were washes in 1×PBS and homogenized in 10 volumes of buffer (“buffer1”) containing 0.32 M sucrose, 5 mM HEPES pH 7.2, and 0.1 mM EDTA in a Teflon homogenizer. The homogenate was centrifuged at 1000×g for 10 min to remove the nuclear fraction. The supernatant obtained was again spun at 12000×g for 20 min at 4° C. The pellet thus obtained was resuspended in 3 volumes of buffer1 and was layered on to the 16%/10%/8.5% Percoll gradient prepared from the stock isoosmotic percoll containing 9 parts 100% percoll, and 1 part 2.5 M sucrose. The preparation was centrifuged at 15000×g for 20 min at 4° C. Synaptosomes collected from the layer between 10% and 16% gradient was washed with 1×PBS and was centrifuged at 20000×g for 15 min. The purified synaptosomes were homogenized in homogenizing buffer and were subjected to western blot as described before.
Western blot analysis was performed after 72 hr.

For series [4] the following is noted: cited from earlier work.

`CCCCCC1CC1CC1CC1CCCCCCCC(=O)OC` (centres unmarked) [DCPLA-ME, methyl 8-(2-((2-pentylcyclopropyl)methyl)cyclopropyl)octanoate]: in series [1] (5.3 mg/kg intragastric), the “memory retention, target quadrant ratio vs control” value was “but not between the 5.3 mg/kg dose and control groups”; the “water maze learning, escape latency vs control” value is “did not reach a significant level”. The “water maze learning, escape latency vs control” value in series [1] (16.0 mg/kg intragastric) was “improved learning performance”. The “visible platform test, sensorimotor ability and escape motivation” value in series [1] (oral) is “did not affect rats' sensorimotor ability and motivation for an escape”. Also, the “PKC-ε protein level (Western Blot, in words)” value in series [2] is “restored the PKC-ε protein level to normal”.
Consider `CCC/C=C/C=C/C(=O)O[C@H]1/C(=C/C(=O)OC)C[C@H]2C[C@H]([C@@H](C)O)OC(=O)C[C@H](O)C[C@@H]3C[C@H](OC(C)=O)C(C)(C)C(O)(C[C@@H]4C/C(=C/C(=O)OC)C[C@H](/C=C/C(C)(C)[C@]1(O)O2)O4)O3` [Bryostatin-1], for which, in series [3], the “increase in PKC-ε level in synaptosomes” value worked out at 2 fold. The toxicity result in series [4] (at 20 μg/week) is recorded as “no toxicity”. Further, in series [4] (in vivo), the “dose that may be associated with muscle pain” value is “more than 35 μg/week”.
